Values quoted from earlier work in patent publication US20060134172A1, “Agents which regulate, inhibit, or modulate the activity and/or expression of lysyl oxidase (LOX) and LOX-like proteases as a unique means to both lower intraocular pressure and treat glaucomatous retinopathies/optic neuropathies” (Alcon, Inc., priority 2004, published 2006).

Molecular target: T1, lysyl oxidase (Homo sapiens, UniProt P28300)
T1 sequence (P28300 169-417): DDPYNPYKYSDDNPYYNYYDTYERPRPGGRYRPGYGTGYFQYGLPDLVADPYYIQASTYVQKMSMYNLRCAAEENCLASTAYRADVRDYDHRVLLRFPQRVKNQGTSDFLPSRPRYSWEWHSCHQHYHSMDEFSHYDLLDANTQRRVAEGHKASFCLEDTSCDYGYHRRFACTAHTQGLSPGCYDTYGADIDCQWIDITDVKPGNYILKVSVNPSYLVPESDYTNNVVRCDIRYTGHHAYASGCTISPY
Settings: known from U.S. Pat. No. 4,444,787

N#CCCN [β-aminopropionitrile (BAPN), β-aminopropionitrile]
in vitro inhibition of lysyl oxidase: inhibition
